# Measured values as given in PubChem BioAssay (NCI).
#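 Each compound was tested at five concentrations against cells in 96-well plates for 48 hours. TGI marks complete inhibition of growth.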
# Legend:
# Experiment in all cases: DTP human tumour cell line panel, 48 h
# HCC-2998 colon = test system: HCC-2998 colon
# SK-MEL-5 melanoma = test system: SK-MEL-5 melanoma
# UACC-62 melanoma = test system: UACC-62 melanoma
# HS 578T breast = test system: HS 578T breast
# SF-295 CNS = test system: SF-295 CNS
# CAKI-1 renal = test system: CAKI-1 renal
# DU-145 prostate = test system: DU-145 prostate
# UO-31 renal = test system: UO-31 renal
# HOP-92 NSCLC = test system: HOP-92 NSCLC
# HCT-116 colon = test system: HCT-116 colon
# SF-268 CNS = test system: SF-268 CNS
# SNB-75 CNS = test system: SNB-75 CNS
# COLO 205 colon = test system: COLO 205 colon
# NCI-H522 lung = test system: NCI-H522 lung
# IGROV1 ovarian = test system: IGROV1 ovarian
# OVCAR-8 ovarian = test system: OVCAR-8 ovarian
# MDA-MB-435 = test system: MDA-MB-435
# UACC-257 melanoma = test system: UACC-257 melanoma
# K-562 leukemia = test system: K-562 leukemia
# RXF 393 renal = test system: RXF 393 renal
# SNB-19 CNS = test system: SNB-19 CNS
# A549 NSCLC = test system: A549 NSCLC
# NCI-H226 lung = test system: NCI-H226 lung
# M14 melanoma = test system: M14 melanoma
# SK-OV-3 ovarian = test system: SK-OV-3 ovarian
# SF-539 CNS = test system: SF-539 CNS
# HL-60(TB) leukemia = test system: HL-60(TB) leukemia
# LOX IMVI melanoma = test system: LOX IMVI melanoma
# OVCAR-3 ovarian = test system: OVCAR-3 ovarian
# MOLT-4 leukemia = test system: MOLT-4 leukemia
# OVCAR-5 ovarian = test system: OVCAR-5 ovarian
# MCF7 breast = test system: MCF7 breast
# 786-0 renal = test system: 786-0 renal
# SK-MEL-28 melanoma = test system: SK-MEL-28 melanoma
# NCI-H460 lung = test system: NCI-H460 lung
# CCRF-CEM leukemia = test system: CCRF-CEM leukemia
# SK-MEL-2 melanoma = test system: SK-MEL-2 melanoma
# RPMI-8226 leukemia = test system: RPMI-8226 leukemia
# MDA-MB-231 breast = test system: MDA-MB-231 breast
# NCI/ADR-RES ovarian = test system: NCI/ADR-RES ovarian
# SN12C renal = test system: SN12C renal
# U251 CNS = test system: U251 CNS
# MALME-3M melanoma = test system: MALME-3M melanoma
# SW-620 colon = test system: SW-620 colon
# HCT-15 colon = test system: HCT-15 colon
# MDA-N = test system: MDA-N
# HOP-62 NSCLC = test system: HOP-62 NSCLC
# EKVX NSCLC = test system: EKVX NSCLC
# PC-3 prostate = test system: PC-3 prostate
# NCI-H23 lung = test system: NCI-H23 lung
# ACHN renal = test system: ACHN renal
# HT29 colon = test system: HT29 colon
# KM12 colon = test system: KM12 colon
compound,measurement,setting,value
CC1(C)COC(c2ccc(C(=O)c3ccc(Cl)cc3)cc2)=N1,TGI,HCC-2998 colon,> 100 µM
same,TGI,SK-MEL-5 melanoma,30.5 µM
same,TGI,UACC-62 melanoma,> 100 µM
same,TGI,HS 578T breast,> 100 µM
same,TGI,SF-295 CNS,> 100 µM
same,TGI,CAKI-1 renal,> 100 µM
same,TGI,DU-145 prostate,> 100 µM
same,TGI,UO-31 renal,> 100 µM
same,TGI,HOP-92 NSCLC,> 100 µM
same,TGI,HCT-116 colon,> 100 µM
same,TGI,SF-268 CNS,> 100 µM
same,TGI,SNB-75 CNS,> 100 µM
same,TGI,COLO 205 colon,> 100 µM
same,TGI,NCI-H522 lung,> 100 µM
same,TGI,IGROV1 ovarian,> 100 µM
same,TGI,OVCAR-8 ovarian,> 100 µM
same,TGI,MDA-MB-435,> 100 µM
same,TGI,UACC-257 melanoma,64.9 µM
same,TGI,K-562 leukemia,> 100 µM
same,TGI,RXF 393 renal,> 100 µM
same,TGI,SNB-19 CNS,> 100 µM
same,TGI,A549 NSCLC,> 100 µM
same,TGI,NCI-H226 lung,> 100 µM
same,TGI,M14 melanoma,> 100 µM
same,TGI,SK-OV-3 ovarian,> 100 µM
same,TGI,SF-539 CNS,> 100 µM
same,TGI,HL-60(TB) leukemia,> 100 µM
same,TGI,LOX IMVI melanoma,> 100 µM
same,TGI,OVCAR-3 ovarian,> 100 µM
same,TGI,MOLT-4 leukemia,> 100 µM
same,TGI,OVCAR-5 ovarian,> 100 µM
same,TGI,MCF7 breast,> 100 µM
same,TGI,786-0 renal,> 100 µM
same,TGI,SK-MEL-28 melanoma,> 100 µM
same,TGI,NCI-H460 lung,> 100 µM
same,TGI,CCRF-CEM leukemia,> 100 µM
same,TGI,SK-MEL-2 melanoma,> 100 µM
same,TGI,RPMI-8226 leukemia,> 100 µM
same,TGI,MDA-MB-231 breast,> 100 µM
same,TGI,NCI/ADR-RES ovarian,> 100 µM
same,TGI,SN12C renal,> 100 µM
same,TGI,U251 CNS,> 100 µM
same,TGI,MALME-3M melanoma,> 100 µM
same,TGI,SW-620 colon,> 100 µM
same,TGI,HCT-15 colon,> 100 µM
same,TGI,MDA-N,> 100 µM
same,TGI,HOP-62 NSCLC,> 100 µM
same,TGI,EKVX NSCLC,> 100 µM
same,TGI,PC-3 prostate,> 100 µM
same,TGI,NCI-H23 lung,> 100 µM
same,TGI,ACHN renal,> 100 µM
same,TGI,HT29 colon,> 100 µM
same,TGI,KM12 colon,> 100 µM
